Assay results as given in patent US10407381B2 (THE BOARD OF TRUSTEES OF THE UNIVERSITY OF ILLINOIS, priority 2015, dated 2019).

molecular target: 5-HT2A (Homo sapiens, UniProt P28223); test: Calcium flux (FLIPR) assay, human 5-HT2A stably expressed in HEK-293 (Flp-In-293) cells; conditions: EC50, nM 5-HT2A, human 5-HT2A in HEK-293 cells, FLIPR; NA = no activity at 10 μM
Sequence (P28223 whole entry): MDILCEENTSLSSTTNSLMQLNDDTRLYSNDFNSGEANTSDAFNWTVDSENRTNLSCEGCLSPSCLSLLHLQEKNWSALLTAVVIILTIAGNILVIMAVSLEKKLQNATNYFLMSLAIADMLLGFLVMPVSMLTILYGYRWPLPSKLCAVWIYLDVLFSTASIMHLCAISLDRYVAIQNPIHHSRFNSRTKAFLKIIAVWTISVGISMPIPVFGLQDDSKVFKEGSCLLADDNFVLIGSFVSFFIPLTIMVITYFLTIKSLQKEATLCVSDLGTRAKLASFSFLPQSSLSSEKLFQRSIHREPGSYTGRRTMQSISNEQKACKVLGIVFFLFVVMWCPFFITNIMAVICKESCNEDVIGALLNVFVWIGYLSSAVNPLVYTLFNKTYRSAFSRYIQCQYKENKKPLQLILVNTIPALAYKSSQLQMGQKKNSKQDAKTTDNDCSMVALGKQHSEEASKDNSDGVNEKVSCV

Compound | EC50 [nM]
CCOc1ccc(Cl)c(F)c1C1CC1CN (single isomer, unassigned; (-)) [(−)-Example 30, (−)-(2-(3-Chloro-6-ethoxy-2-fluorophenyl)cyclopropyl)methanamine] | 819
CCOc1ccc(Cl)c(Cl)c1C1CC1CN (single isomer, unassigned; (-)) [(−)-Example 37, (−)-(2-(2,3-Dichloro-6-ethoxyphenyl)cyclopropyl)methanamine] | 625

same assay, conditions: human 5-HT2A in HEK-293 cells, FLIPR; normalized to 5-HT

Compound | Emax, % 5-HT 5-HT2A
COc1ccc(F)c(Cl)c1C1CC1CN (single isomer, unassigned; (+)) [(+)-Example 50, (+)-(2-(2-Chloro-3-fluoro-6-methoxyphenyl)cyclopropyl)methanamine] | (77%) % 5-HT
COc1ccc(Cl)c(F)c1C1CC1CN (single isomer, unassigned; (-)) [(−)-Example 29, (−)-(2-(3-chloro-2-fluoro-6-methoxyphenyl)cyclopropyl)methanamine] | (86%) % 5-HT
CCOc1ccc(Cl)c(F)c1C1CC1CN (single isomer, unassigned; (-)) [(−)-Example 30, (−)-(2-(3-Chloro-6-ethoxy-2-fluorophenyl)cyclopropyl)methanamine] | (31%) % 5-HT
COc1cc(Cl)c(Cl)cc1C1CC1CN (single isomer, unassigned; (-)) [(−)-Example 33, (−)-(2-(4,5-Dichloro-2-methoxyphenyl)cyclopropyl)methanamine] | (75%) % 5-HT
NCC1CC1c1cc(Cl)c(Cl)cc1OCCF (single isomer, unassigned; (-)) [(−)-Example 34, (−)-(2-(4,5-Dichloro-2-(2-fluoroethoxy)phenyl)cyclopropyl)methanamine] | (4%) % 5-HT
COc1ccc(Cl)c(Cl)c1C1CC1CN (single isomer, unassigned; (-)) [(−)-Example 36, (−)-(2-(2,3-Dichloro-6-methoxyphenyl)cyclopropyl)methanamine] | (88%) % 5-HT
CCOc1ccc(Cl)c(Cl)c1C1CC1CN (single isomer, unassigned; (-)) [(−)-Example 37, (−)-(2-(2,3-Dichloro-6-ethoxyphenyl)cyclopropyl)methanamine] | (12%) % 5-HT
C=CCOc1ccc(Cl)c(Cl)c1C1CC1CN (single isomer, unassigned; (-)) [(−)-Example 39] | (32%) % 5-HT

same assay, conditions: read-out: EC50, nM 5-HT2A; human 5-HT2A in HEK-293 cells, FLIPR; NA = no activity at 10 μM

Compound | EC50 [nM]
COc1ccc(F)c(Cl)c1C1CC1CN (single isomer, unassigned; (+)) [(+)-Example 50, (+)-(2-(2-Chloro-3-fluoro-6-methoxyphenyl)cyclopropyl)methanamine] | 769
COc1ccc(Cl)c(F)c1C1CC1CN (single isomer, unassigned; (-)) [(−)-Example 29, (−)-(2-(3-chloro-2-fluoro-6-methoxyphenyl)cyclopropyl)methanamine] | 68
COc1cc(Cl)c(Cl)cc1C1CC1CN (single isomer, unassigned; (-)) [(−)-Example 33, (−)-(2-(4,5-Dichloro-2-methoxyphenyl)cyclopropyl)methanamine] | 84
COc1ccc(Cl)c(Cl)c1C1CC1CN (single isomer, unassigned; (-)) [(−)-Example 36, (−)-(2-(2,3-Dichloro-6-methoxyphenyl)cyclopropyl)methanamine] | 38
C=CCOc1ccc(Cl)c(Cl)c1C1CC1CN (single isomer, unassigned; (-)) [(−)-Example 39] | 426

molecular target: 5-HT2B (Homo sapiens, UniProt P41595); test: Calcium flux (FLIPR) assay, human 5-HT2B stably expressed in HEK-293 (Flp-In-293) cells; conditions: EC50, nM 5-HT2B, human 5-HT2B in HEK-293 cells, NA = no activity at 10 μM
Sequence (P41595 whole entry): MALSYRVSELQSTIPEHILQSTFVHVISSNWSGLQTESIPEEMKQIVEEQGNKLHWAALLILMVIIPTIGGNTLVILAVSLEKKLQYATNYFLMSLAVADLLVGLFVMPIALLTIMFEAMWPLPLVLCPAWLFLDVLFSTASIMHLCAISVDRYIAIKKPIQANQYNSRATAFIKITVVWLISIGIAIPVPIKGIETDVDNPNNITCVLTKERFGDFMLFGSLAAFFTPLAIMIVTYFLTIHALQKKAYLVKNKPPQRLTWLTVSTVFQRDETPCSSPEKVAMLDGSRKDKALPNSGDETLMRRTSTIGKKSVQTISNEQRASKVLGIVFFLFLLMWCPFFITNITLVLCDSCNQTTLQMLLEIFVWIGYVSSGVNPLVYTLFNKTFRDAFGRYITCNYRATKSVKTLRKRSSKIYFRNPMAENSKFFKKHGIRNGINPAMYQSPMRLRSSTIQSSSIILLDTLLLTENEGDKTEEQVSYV

Compound | EC50 [nM]
CCOc1ccc(Cl)c(F)c1C1CC1CN (single isomer, unassigned; (-)) [(−)-Example 30, (−)-(2-(3-Chloro-6-ethoxy-2-fluorophenyl)cyclopropyl)methanamine] | 7420
CCOc1ccc(Cl)c(Cl)c1C1CC1CN (single isomer, unassigned; (-)) [(−)-Example 37, (−)-(2-(2,3-Dichloro-6-ethoxyphenyl)cyclopropyl)methanamine] | 6830

same assay, conditions: human 5-HT2B in HEK-293 cells, normalized to 5-HT

Compound | Emax, % 5-HT 5-HT2B
COc1ccc(F)c(Cl)c1C1CC1CN (single isomer, unassigned; (+)) [(+)-Example 50, (+)-(2-(2-Chloro-3-fluoro-6-methoxyphenyl)cyclopropyl)methanamine] | (60%) % 5-HT
COc1ccc(Cl)c(F)c1C1CC1CN (single isomer, unassigned; (-)) [(−)-Example 29, (−)-(2-(3-chloro-2-fluoro-6-methoxyphenyl)cyclopropyl)methanamine] | (64%) % 5-HT
CCOc1ccc(Cl)c(F)c1C1CC1CN (single isomer, unassigned; (-)) [(−)-Example 30, (−)-(2-(3-Chloro-6-ethoxy-2-fluorophenyl)cyclopropyl)methanamine] | (51%) % 5-HT
COc1cc(Cl)c(Cl)cc1C1CC1CN (single isomer, unassigned; (-)) [(−)-Example 33, (−)-(2-(4,5-Dichloro-2-methoxyphenyl)cyclopropyl)methanamine] | (16%) % 5-HT
NCC1CC1c1cc(Cl)c(Cl)cc1OCCF (single isomer, unassigned; (-)) [(−)-Example 34, (−)-(2-(4,5-Dichloro-2-(2-fluoroethoxy)phenyl)cyclopropyl)methanamine] | (12%) % 5-HT
COc1ccc(Cl)c(Cl)c1C1CC1CN (single isomer, unassigned; (-)) [(−)-Example 36, (−)-(2-(2,3-Dichloro-6-methoxyphenyl)cyclopropyl)methanamine] | (62%) % 5-HT
CCOc1ccc(Cl)c(Cl)c1C1CC1CN (single isomer, unassigned; (-)) [(−)-Example 37, (−)-(2-(2,3-Dichloro-6-ethoxyphenyl)cyclopropyl)methanamine] | (53%) % 5-HT
C=CCOc1ccc(Cl)c(Cl)c1C1CC1CN (single isomer, unassigned; (-)) [(−)-Example 39] | (99%) % 5-HT

same assay, conditions: read-out: EC50, nM 5-HT2B, human 5-HT2B in HEK-293 cells, NA = no activity at 10 μM

Compound | EC50 [nM]
COc1ccc(Cl)c(F)c1C1CC1CN (single isomer, unassigned; (-)) [(−)-Example 29, (−)-(2-(3-chloro-2-fluoro-6-methoxyphenyl)cyclopropyl)methanamine] | 165
COc1cc(Cl)c(Cl)cc1C1CC1CN (single isomer, unassigned; (-)) [(−)-Example 33, (−)-(2-(4,5-Dichloro-2-methoxyphenyl)cyclopropyl)methanamine] | 696
COc1ccc(Cl)c(Cl)c1C1CC1CN (single isomer, unassigned; (-)) [(−)-Example 36, (−)-(2-(2,3-Dichloro-6-methoxyphenyl)cyclopropyl)methanamine] | 51
C=CCOc1ccc(Cl)c(Cl)c1C1CC1CN (single isomer, unassigned; (-)) [(−)-Example 39] | 3960

molecular target: T1, human 5-HT2C-INI (Homo sapiens, UniProt P28335); test: Calcium flux (FLIPR) assay, human 5-HT2C-INI stably expressed in HEK-293 (Flp-In-293) cells; conditions: EC50, nM 5-HT2C, human 5-HT2C-INI in HEK-293 cells, FLIPR; NA = no activity at 10 μM
T1 sequence (P28335 33-458): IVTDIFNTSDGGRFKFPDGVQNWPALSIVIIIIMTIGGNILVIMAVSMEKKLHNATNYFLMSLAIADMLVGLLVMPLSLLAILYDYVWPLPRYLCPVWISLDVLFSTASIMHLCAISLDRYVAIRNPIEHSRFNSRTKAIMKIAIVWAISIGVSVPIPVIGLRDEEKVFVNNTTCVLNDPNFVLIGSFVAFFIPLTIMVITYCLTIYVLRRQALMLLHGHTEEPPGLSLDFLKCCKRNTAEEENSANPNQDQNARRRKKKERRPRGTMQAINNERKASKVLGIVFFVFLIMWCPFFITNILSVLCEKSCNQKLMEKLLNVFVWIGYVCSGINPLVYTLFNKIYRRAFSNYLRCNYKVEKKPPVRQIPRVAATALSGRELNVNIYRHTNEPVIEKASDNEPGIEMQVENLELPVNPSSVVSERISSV

Compound | EC50 [nM]
CCOc1ccc(Cl)c(F)c1C1CC1CN (single isomer, unassigned; (-)) [(−)-Example 30, (−)-(2-(3-Chloro-6-ethoxy-2-fluorophenyl)cyclopropyl)methanamine] | 97
NCC1CC1c1cc(Cl)c(Cl)cc1OCCF (single isomer, unassigned; (-)) [(−)-Example 34, (−)-(2-(4,5-Dichloro-2-(2-fluoroethoxy)phenyl)cyclopropyl)methanamine] | 435
CCOc1ccc(Cl)c(Cl)c1C1CC1CN (single isomer, unassigned; (-)) [(−)-Example 37, (−)-(2-(2,3-Dichloro-6-ethoxyphenyl)cyclopropyl)methanamine] | 30

same assay, conditions: human 5-HT2C-INI in HEK-293 cells, FLIPR; normalized to 5-HT

Compound | Emax, % 5-HT 5-HT2C
COc1ccc(F)c(Cl)c1C1CC1CN (single isomer, unassigned; (+)) [(+)-Example 50, (+)-(2-(2-Chloro-3-fluoro-6-methoxyphenyl)cyclopropyl)methanamine] | (88%) % 5-HT
COc1ccc(Cl)c(F)c1C1CC1CN (single isomer, unassigned; (-)) [(−)-Example 29, (−)-(2-(3-chloro-2-fluoro-6-methoxyphenyl)cyclopropyl)methanamine] | (93%) % 5-HT
CCOc1ccc(Cl)c(F)c1C1CC1CN (single isomer, unassigned; (-)) [(−)-Example 30, (−)-(2-(3-Chloro-6-ethoxy-2-fluorophenyl)cyclopropyl)methanamine] | (90%) % 5-HT
COc1cc(Cl)c(Cl)cc1C1CC1CN (single isomer, unassigned; (-)) [(−)-Example 33, (−)-(2-(4,5-Dichloro-2-methoxyphenyl)cyclopropyl)methanamine] | (89%) % 5-HT
NCC1CC1c1cc(Cl)c(Cl)cc1OCCF (single isomer, unassigned; (-)) [(−)-Example 34, (−)-(2-(4,5-Dichloro-2-(2-fluoroethoxy)phenyl)cyclopropyl)methanamine] | (75%) % 5-HT
COc1ccc(Cl)c(Cl)c1C1CC1CN (single isomer, unassigned; (-)) [(−)-Example 36, (−)-(2-(2,3-Dichloro-6-methoxyphenyl)cyclopropyl)methanamine] | (104%) % 5-HT
CCOc1ccc(Cl)c(Cl)c1C1CC1CN (single isomer, unassigned; (-)) [(−)-Example 37, (−)-(2-(2,3-Dichloro-6-ethoxyphenyl)cyclopropyl)methanamine] | (104%) % 5-HT
C=CCOc1ccc(Cl)c(Cl)c1C1CC1CN (single isomer, unassigned; (-)) [(−)-Example 39] | (93%) % 5-HT

same assay, conditions: read-out: EC50, nM 5-HT2C; human 5-HT2C-INI in HEK-293 cells, FLIPR; NA = no activity at 10 μM

Compound | EC50 [nM]
COc1ccc(F)c(Cl)c1C1CC1CN (single isomer, unassigned; (+)) [(+)-Example 50, (+)-(2-(2-Chloro-3-fluoro-6-methoxyphenyl)cyclopropyl)methanamine] | 24
COc1ccc(Cl)c(F)c1C1CC1CN (single isomer, unassigned; (-)) [(−)-Example 29, (−)-(2-(3-chloro-2-fluoro-6-methoxyphenyl)cyclopropyl)methanamine] | 3.8
COc1cc(Cl)c(Cl)cc1C1CC1CN (single isomer, unassigned; (-)) [(−)-Example 33, (−)-(2-(4,5-Dichloro-2-methoxyphenyl)cyclopropyl)methanamine] | 14
COc1ccc(Cl)c(Cl)c1C1CC1CN (single isomer, unassigned; (-)) [(−)-Example 36, (−)-(2-(2,3-Dichloro-6-methoxyphenyl)cyclopropyl)methanamine] | 0.95
C=CCOc1ccc(Cl)c(Cl)c1C1CC1CN (single isomer, unassigned; (-)) [(−)-Example 39] | 108
